Laboratory results as given in patent publication EP4706685A1, “PHARMACEUTICAL FORMULATION COMPRISING LANOSTEROL, DERIVATIVE THEREOF, AND CYCLODEXTRIN” (CARBOEXPERT Inc., priority 2023, dated 2024).

What was measured:
[1] = Stability in solution (visual observation of precipitation with auxiliary agent); type: physicochemical; conditions: precipitation observed visually after 24 hours at room temperature
Description: Specifically, unenclosed inotodiol or the inotodiol/CD inclusion complex was mixed with a prepared auxiliary agent. The auxiliary agent was prepared at a concentration of 100 to 15,000 ppm based on the weight of inotodiol, and then treated in a sonic bath at 50 °C for 30 minutes. Afterwards, the stability was determined by visually observing whether precipitation occurred after leaving the mixture at room temperature for 24 hours.

[2] = system: mouse-derived macrophage cell line (Raw264.7); test: Anti-inflammatory effect against LPS in macrophage cell line, cytokine mRNA by RT-PCR; type: cell-based; conditions: treated at 5 ug/ml; LPS 0.1 µg/ml, 4 hours
Description: Specifically, Raw264.7 was seeded into a […] at a density of 0.8 X 10^6 cells/well and cultured overnight. Then, the cells were pre-treated with inotodiol and the inotodiol/CD inclusion complex each at different concentrations for 2 hours. The cells were treated with lipopolysaccharide (LPS) at a concentration of 0.1 µg/ml and cultured for 4 hours to induce inflammation, after which RNA was extracted. Then, the mRNA expression of IL-6, IL-1β, and TNF-α was confirmed by a reverse transcription polymerase chain reaction (RT-PCR) method, and the results are shown in FIG. 6.

In the case of `CC(C)=CC[C@@H](O)[C@@H](C)[C@H]1CC[C@@]2(C)C3=C(CC[C@]12C)[C@@]1(C)CC[C@H](O)C(C)(C)[C@@H]1CC3` [inotodiol, (3S,5R,10S,13R,14R,17R)-17-[(2S,3R)-3-hydroxy-6-methylhept-5-en-2-yl]-4,4,10,13,14-pentamethyl-2,3,5,6,7,11,12,15,16,17-decahydro-1H-cyclopenta[a]phenanthren-3-ol], the “ppm of inotodiol in solution” value ([1]; Kolliphor (5 %)) is reported as 500 < ppm, the “ppm of inotodiol in solution” value ([1]; Tween 80 (1 %)) is reported as 100 < ppm and the “mRNA expression level of IL-6” value [2] is reported as “significantly reduced”. For the same compound, the “mRNA expression level of TNF-α” value [2] was “significantly reduced”.
